Laboratory results published in the supplement of paper PMC10307832.

Assays:
Experiment in all cases: relative viability (nuclei count vs DMSO), 5 days (fraction); higher = more cells survive
Dovitinib + Luminespib = compound: CN1CCN(c2ccc3nc(-c4c(N)c5c(F)cccc5[nH]c4=O)[nH]c3c2)CC1 [Dovitinib] + CCNC(=O)c1noc(-c2cc(C(C)C)c(O)cc2O)c1-c1ccc(CN2CCOCC2)cc1 [Luminespib] (partner 0.01 µM)
Method in brief: (§1)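 Values are medians from duplicate plates. Each reflects relative viability, defined as the nuclei count of treated wells over that of vehicle wells. Lung cancer cell lines in 1536-well plates were pin-tool dosed one day after seeding with one drug alone or with a fixed anchor-drug dose plus five library-drug doses (not always all listed) in √10 steps, then fixed, stained and imaged at 4× after 5 days.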

Dovitinib + Lapatinib = compound: CN1CCN(c2ccc3nc(-c4c(N)c5c(F)cccc5[nH]c4=O)[nH]c3c2)CC1 [Dovitinib] + CS(=O)(=O)CCNCc1ccc(-c2ccc3ncnc(Nc4ccc(OCc5cccc(F)c5)c(Cl)c4)c3c2)o1 [Lapatinib] (partner 2 µM)
Method in brief: as §1

Dovitinib + Decitabine = compound: CN1CCN(c2ccc3nc(-c4c(N)c5c(F)cccc5[nH]c4=O)[nH]c3c2)CC1 [Dovitinib] + Nc1ncn([C@H]2C[C@H](O)[C@@H](CO)O2)c(=O)n1 [Decitabine] (partner 2 µM)
Method in brief: as §1

Dovitinib + Olaparib = compound: CN1CCN(c2ccc3nc(-c4c(N)c5c(F)cccc5[nH]c4=O)[nH]c3c2)CC1 [Dovitinib] + O=C(c1cc(Cc2n[nH]c(=O)c3ccccc23)ccc1F)N1CCN(C(=O)C2CC2)CC1 [Olaparib] (partner 8 µM)
Method in brief: as §1

Cell Line	relative viability (Dovitinib + Luminespib; first compound 0.02 µM)	relative viability (Dovitinib + Luminespib; first compound 0.06325 µM)	relative viability (Dovitinib + Luminespib; first compound 0.2 µM)	relative viability (Dovitinib + Luminespib; first compound 0.6325 µM)	relative viability (Dovitinib + Luminespib; first compound 2 µM)	relative viability (Dovitinib + Lapatinib; first compound 0.02 µM)	relative viability (Dovitinib + Lapatinib; first compound 0.06325 µM)	relative viability (Dovitinib + Lapatinib; first compound 0.2 µM)	relative viability (Dovitinib + Lapatinib; first compound 0.6325 µM)	relative viability (Dovitinib + Lapatinib; first compound 2 µM)	relative viability (Dovitinib + Decitabine; first compound 0.02 µM)	relative viability (Dovitinib + Decitabine; first compound 0.06325 µM)	relative viability (Dovitinib + Decitabine; first compound 0.2 µM)	relative viability (Dovitinib + Decitabine; first compound 0.6325 µM)	relative viability (Dovitinib + Decitabine; first compound 2 µM)	relative viability (Dovitinib + Olaparib; first compound 0.02 µM)	relative viability (Dovitinib + Olaparib; first compound 0.06325 µM)	relative viability (Dovitinib + Olaparib; first compound 0.2 µM)	relative viability (Dovitinib + Olaparib; first compound 0.6325 µM)	relative viability (Dovitinib + Olaparib; first compound 2 µM)
NCI-H1437	1.07	1.12	1.13	0.985	1.07	0.813	0.802	0.843	0.821	0.788	0.509	0.615	0.592	0.573	0.549	0.623	0.647	0.612	0.632	0.655
NCI-H2009	0.974	1.11	0.981	0.973	1.13	0.768	0.954	0.912	0.928	1.13	0.428	0.431	0.403	0.344	0.4	0.651	0.668	0.657	0.671	0.832
NCI-H1651	0.901	0.902	0.996	0.752	0.683	0.914	1	0.913	0.777	0.929	0.578	0.62	0.577	0.652	0.59	0.175	0.187	0.167	0.191	0.163
NCI-H1666	1.02	0.991	1.07	0.997	0.972	0.657	0.627	0.667	0.596	0.69	0.714	0.718	0.734	0.835	0.8	0.755	0.777	0.756	0.731	0.77
NCI-H1734	0.177	0.231	0.185	0.182	0.198	1.11	1.02	1.05	1.09	0.503	0.49	0.519	0.472	0.506	0.467	0.66	0.648	0.547	0.605	0.678
EPLC-272H	0.235	0.241	0.386	0.364	0.236	0.992	0.939	0.94	1.1	1.23	0.403	0.333	0.336	0.372	0.374	0.815	0.893	0.793	0.681	0.57
NCI-H2023	0.853	0.627	0.809	0.897	0.833	0.778	0.739	1.13	0.918	0.808	0.223	0.234	0.217	0.237	0.215	0.454	0.487	0.541	0.432	0.482
BEN	0.258	0.458	0.432	0.512	0.203	0.533	0.822	0.835	0.771	0.808	0.754	0.599	0.683	0.783	0.71	1.11	1.09	1.08	1.1	1.05
COR-L 105	0.77	0.84	0.78	0.82	0.81	0.39	0.367	0.341	0.327	0.407	0.596	0.622	0.619	0.657	0.646	0.691	0.712	0.72	0.765	0.638
ABC-1	–	0.522	0.326	0.783	0.659	1.15	1.28	1.02	1.18	0.969	1.08	0.991	1.03	0.891	1.14	0.628	0.664	0.871	1.09	0.944
HCC-15	0.233	0.237	0.238	0.297	0.303	0.853	0.857	0.91	0.874	0.845	0.684	0.746	0.686	0.676	0.619	0.687	0.703	0.71	0.696	0.726
NCI-H2170	0.892	0.79	0.857	0.538	0.652	0.291	0.243	0.273	0.267	0.277	0.466	0.496	0.529	0.458	0.458	0.617	0.607	0.606	0.605	0.542
PC-3 [JPC-3]	0.681	0.695	0.722	0.782	0.71	0.483	0.398	0.466	0.488	0.47	0.949	0.882	0.859	0.804	0.898	1.16	1.16	1.14	1.13	1.15
NCI-H1993	0.873	0.716	0.816	0.728	0.346	0.853	0.803	0.952	0.799	0.731	0.637	0.598	0.67	0.683	0.622	1.07	0.961	1.08	0.912	0.982
NCI-H358	0.31	0.306	0.428	0.813	0.306	0.507	0.417	0.446	0.492	0.438	0.237	0.214	0.247	0.238	0.206	0.621	0.658	0.619	0.543	0.606
NCI-H1915	0.717	0.897	0.884	0.775	0.781	0.87	0.955	0.971	0.944	1.02	0.26	0.258	0.246	0.251	0.284	0.253	0.27	0.271	0.264	0.257
